# Experimental data taken from PubChem BioAssay (NCI).
#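 All cell lines were grown in 96-well plates and treated with compound for 48 hours. Here, GI50 denotes the concentration required for 50% inhibition of growth. TGI: concentration producing complete growth inhibition.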
# Tests used:
# Assay in all cases: NCI-60 cell line screen, 48 h
# [1] = system: SK-MEL-2 melanoma
# [2] = system: A549 NSCLC
# [3] = system: KM12 colon
# [4] = system: COLO 205 colon
# [5] = system: A498 renal
# [6] = system: HCT-116 colon
# [7] = system: TK-10 renal
# [8] = system: SN12C renal
# [9] = system: SF-295 CNS
# [10] = system: SW-620 colon
Structure (SMILES),GI50 [1],TGI [1],GI50 [2],TGI [2],GI50 [3],TGI [3],GI50 [4],TGI [4],GI50 [5],TGI [5],GI50 [6],TGI [6],GI50 [7],TGI [7],GI50 [8],TGI [8],GI50 [9],TGI [9],GI50 [10],TGI [10]
O=Cc1ncc(-c2ccc(C(F)(F)F)cc2)c(NC2CCCCCC2)n1,> 10 µM,> 10 µM,> 10 µM,> 10 µM,> 10 µM,> 10 µM,> 10 µM,> 10 µM,> 10 µM,> 10 µM,> 10 µM,> 10 µM,> 10 µM,> 10 µM,> 10 µM,> 10 µM,> 10 µM,> 10 µM,> 10 µM,> 10 µM
CCCCCCCCC(=O)CCCCCCCCC(=O)O,–,> 100 µM,–,45.2 µM,–,32 µM,–,59.8 µM,–,47.8 µM,–,51 µM,–,> 100 µM,–,76.2 µM,–,> 100 µM,–,> 100 µM
COC(=O)C1=C(C(=O)Nc2cccnc2)C2OC1(C(Cc1ccccc1)Oc1ccccc1)C1OC21 (stereo not drawn),12.9 µM,25.9 µM,17.1 µM,31.2 µM,14.6 µM,33.3 µM,1.73 µM,3.29 µM,11.2 µM,23.8 µM,2.01 µM,4.23 µM,1.51 µM,2.85 µM,3.67 µM,14.2 µM,14.6 µM,28.6 µM,1.69 µM,3.58 µM
Nc1nn(C(=O)Nc2ccc(Cc3ccccc3)cc2)c2ccc(Cl)cc12,16.5 µM,> 100 µM,5.76 µM,> 89.2 µM,0.0755 µM,> 100 µM,1.92 µM,28.9 µM,15.9 µM,52.8 µM,0.354 µM,24.2 µM,17.7 µM,50.3 µM,14.2 µM,48.1 µM,0.122 µM,19.9 µM,0.724 µM,54.3 µM
COC(=O)C1C2CC3C(OC(=O)C31)C2I (stereo not drawn),–,> 100 µM,–,> 100 µM,–,> 100 µM,–,> 100 µM,–,> 100 µM,–,> 100 µM,–,> 10 µM,–,> 100 µM,–,> 100 µM,–,> 100 µM
O=[n+]1cnn([O-])c2ccccc21,–,96.2 µM,–,> 100 µM,–,40.4 µM,–,40.7 µM,–,> 100 µM,–,36.9 µM,–,> 100 µM,–,> 100 µM,–,> 100 µM,–,46.1 µM
O=C(c1ccc(F)c(F)c1Nc1ccc(I)cc1F)N1CC(O)([C@H]2CCCCN2)C1,0.135 µM,0.702 µM,2.37 µM,18 µM,1.12 µM,14 µM,0.0735 µM,4.1 µM,1.11 µM,3.31 µM,0.649 µM,11.7 µM,1.4 µM,15.3 µM,3.96 µM,19.7 µM,14.5 µM,28.9 µM,0.34 µM,15 µM
O=C1OCC2=C1C(c1ccccc1)c1cc3c(cc1N2CCO)CCC3 (stereo not drawn),0.0901 µM,> 8.97 µM,0.152 µM,> 25 µM,0.0793 µM,0.922 µM,0.0854 µM,0.331 µM,0.0746 µM,0.657 µM,0.0857 µM,5.42 µM,1.52 µM,> 25 µM,0.172 µM,> 25 µM,0.0677 µM,–,0.0879 µM,> 25 µM
CCc1ccc(/C(C#N)=C/C=C/c2ccccc2)cc1,4.92 µM,> 100 µM,2.62 µM,> 100 µM,1.61 µM,> 100 µM,1.83 µM,5.91 µM,2.19 µM,39.3 µM,1.93 µM,> 100 µM,5.79 µM,> 100 µM,10.6 µM,> 100 µM,2.51 µM,10.5 µM,1.22 µM,> 100 µM
CC1C(=O)CCC1C(Sc1ccccc1)(Sc1ccccc1)Sc1ccccc1 (stereo not drawn),–,> 100 µM,–,> 100 µM,–,> 100 µM,–,> 100 µM,–,> 100 µM,–,> 100 µM,–,> 100 µM,–,91 µM,–,> 100 µM,–,> 100 µM
Cc1ccccc1NC(=O)N/C(N)=N/c1nc2ccccc2s1,> 100 µM,> 100 µM,0.0871 µM,> 100 µM,0.0399 µM,> 100 µM,0.0514 µM,4.28 µM,0.0261 µM,0.142 µM,0.0456 µM,–,3.78 µM,> 100 µM,0.0853 µM,> 100 µM,0.0292 µM,1.17 µM,0.0427 µM,> 100 µM
CCC[CH2][Sn]([CH2]CCC)([O]C(=O)c1cc(OC)c(OC)c(OC)c1)[O]C(=O)c1cc(OC)c(OC)c(OC)c1,1.1 µM,2.31 µM,3.59 µM,13.8 µM,1.45 µM,3.01 µM,1.22 µM,2.59 µM,1.17 µM,3.02 µM,1.37 µM,2.66 µM,1.58 µM,3.02 µM,1.51 µM,3.68 µM,1.6 µM,3.19 µM,0.973 µM,2.72 µM
Clc1ccc(N/N=C/c2ccccn2)nc1,0.675 µM,> 100 µM,0.518 µM,> 100 µM,0.395 µM,> 54.7 µM,0.342 µM,18.6 µM,0.439 µM,5.9 µM,0.305 µM,> 100 µM,0.442 µM,> 100 µM,0.469 µM,> 100 µM,0.452 µM,> 100 µM,0.468 µM,> 100 µM
Nc1ccccc1S(=O)c1ccccc1 (stereo not drawn),–,> 100 µM,–,> 100 µM,–,> 100 µM,–,> 100 µM,–,> 100 µM,–,> 100 µM,–,> 100 µM,–,> 100 µM,–,> 100 µM,–,> 100 µM
COc1cc(C2=Nc3c/c(=C\c4c(O)[nH]c5ccc(Cl)cc45)ccc3=N2)cc(OC)c1OC,9.01 µM,30.2 µM,2.87 µM,10.7 µM,3.09 µM,12.2 µM,2.45 µM,7.27 µM,29.4 µM,> 100 µM,1.56 µM,3.54 µM,5.76 µM,17.4 µM,2.11 µM,6.5 µM,11.7 µM,29.7 µM,1.98 µM,4.41 µM
